Data published in publication PMC10330721, “Chemo-enzymatic synthesis and biological activity evaluation of propenylbenzene derivatives” (Frontiers in Microbiology, 2023).
In brackets after ≈: the same amount, converted by molar mass.

Experiments:
RBCs membrane = test: Fluorescence spectroscopy of the RBCs membrane (DPH probe anisotropy); assay type: cell-based, human; settings: for Fluorescence anisotropy of the DPH probe: membranes of RBCs, 37 °C
Method: Using the DPH probe, the anisotropy values of cell membranes of RBCs modified with the test compounds were measured. RBCs for this analysis were prepared according to the method described in subsection 2.5.3. Then, the DPH probe was added to RBCs with a haematocrit of 0.2%. The final concentration of the probe in the sample was 1.3 μM. The mixture was incubated protected from light at 37°C for 30 min. Then, the compounds dissolved in ethanol were added. The compounds were tested at 20, 60, and 100 μM concentrations. Samples with compounds and control samples with alcohol of the appropriate concentration were incubated at 37°C for 1 h. Measurements in triplicate were made in quartz cuvettes using a CARY Eclipse fluorimeter (Varian, San Diego, CA, United States) at 37°C. The excitation wavelength for the DPH probe is λexc = 360 nm and the emission wavelength is λem = 426 nm.

[1] = Haemolytic activity assay; assay type: cell-based; settings: human red blood cells (RBCs) from healthy donors, 37°C, read-out: Percentage of haemolysis
Method: This test is based on comparison of the cytotoxicity of all tested compounds in human red blood cells (RBCs) with that in a control group. RBCs for this method were obtained from a blood center from examined and healthy donors. The compounds were tested at 10, 20, 40, 60, 80, and 100 μM concentrations. The control sample contained only ethanol in the same volume as the test samples. […] The samples were incubated at 37°C for 1 h. Then, the absorbance at 540 nm was measured using a UV–Vis spectrophotometer (Specord 40, Analytik Jena, Jena, Germany). The haemolytic activity of the compounds was determined as the ratio of the absorbance of haemoglobin in the test samples to that in completely haemolyzed cells multiplied by 100%.

Dietzia sp. DSM44016 = test: Substrate toxicity in preparative biotransformation; assay type: cell-based; settings: preparative scale, 0.2 g substrate in 500 mL PCM medium
Method: (§1) Five hundred millilitres of PCM medium was added into a 2,000-mL Erlenmeyer flask and sterilized at 121°C for 15 min. The medium was inoculated with 5 mL of pre-prepared bacterial cultures at OD600 = 0.3–0.5. The cultures were incubated at 22°C under shaking at 150 rpm for 3 days. Then, 0.2 g of diols 1b–5b dissolved in 5 mL of DMSO was added into the cultures. The samples were extracted after 3, 7, 11 days and evaluated by GC to estimate the progress of the biotransformation.

[2] = tested on: R. erythropolis DSM44534 and R. erythropolis PCM2150; test: Substrate inhibition in preparative biotransformation; assay type: cell-based, Rhodococcus erythropolis; settings: preparative scale, high concentration of substrate (0.2 g in 500 mL PCM medium)
Method: as §1

C. albicans 636/20 = test: Fungistatic activity assay, broth microdilution; assay type: cell-based; settings: Candida albicans; C. albicans 636/20, 24 h, 35°C, tested 10–250 μg/mL; read-out: MIC50
Method: (§2) Fungistatic activity was determined using Candida albicans ATCC 90028 from the American Type Culture Collection (ATCC, Manassas, VA, United States), and clinical isolates, C. albicans 636/20, C. albicans 595/20, and C. albicans 38 obtained from Wrocław Medical University, Wrocław, Poland.
(§3) All compounds were tested for biological activity against C. albicans ATTC 90028, C. albicans 636/20, C. albicans 595/20, and C. albicans 38 using the broth microdilution method. YPD medium (20 g glucose, 20 g Bacto Peptone, 10 g yeast extract, and 1 L of distilled water, pH 6.5) was used for the tests. The compound solutions were prepared in DMSO and diluted in YPD to obtain final concentrations in the range of 10–250 μg/mL. One hundred microlitres of each solution was pipetted into the wells of a 96-well microtiter plate. The inoculum was standardized to 0.5 McFarland standard and then diluted to obtain a final suspension with a cell density of 0.5–2.5 × 10^3 CFU/mL. The inoculum size was 100 μL. The positive control comprised DMSO added in the same concentration as the tested compounds in the inoculum, whereas the negative control consisted of DMSO diluted in the broth without the addition of inoculum. The microtiter plates were incubated in a Biosan PST-60 HL Plate Shaker-Thermostat (Riga, Latvia) at 35°C under shaking at 1,000 rpm for 24 h.

C. albicans ATTC 90028 = test: Fungistatic activity assay, broth microdilution; assay type: cell-based; settings: Candida albicans; C. albicans ATTC90028, 24 h, 35°C, tested 10–250 μg/mL; read-out: MIC50
Method: as §2, §3

Caco-2 cells = test: Resazurin-based viability assay; assay type: cell-based, human; settings: 24 h, 1, 50 and 200 μg/mL
Method: (§4) The human HepG2 and Caco-2 cell lines were obtained from the American Type Culture Collection (HB-8065™ and HTB-37™) and the MG-63 cell line was obtained from the European Collection of Authenticated Cell Cultures (Merck, Poznań, Poland). HepG2 cells were cultured in Dulbecco’s modified Eagle’s Medium - low glucose (Merck) supplemented with 10% foetal bovine serum (FBS) (Merck). Caco-2 cells were cultured in Dulbecco’s modified Eagle’s medium - high glucose (Merck) supplemented with 10% FBS, 2% HEPES buffer (Thermo Fisher Scientific, Warszawa, Poland), 1% Penicillin–Streptomycin-Amphotericin B Solution (100×, Merck), 1% MEM solution (100×, Thermo Fisher Scientific), and 1% Gentamycin Solution (10 mg/mL, Merck). MG-63 cells were cultured in Minimum Essential Medium (Merck) supplemented with 10% FBS. All cells were cultured in an atmosphere of 5% CO2 at 37°C.
(§5) HepG2, Caco-2, and […] were seeded in 96-well plates at 20,000 cells per well, and MG-63 cells at 10,000 cells per well, as described previously ([Marycz et al., 2012]; [Kornicka et al., 2017]). The tested compounds were dissolved in ethanol at 10 mg/mL. The concentrations were then adjusted to 1, 50, and 200 μg/mL in culture medium. Four controls were prepared: no ethanol added, and 0.01, 0.5, and 2% EtOH. The cells were treated with the compounds for 24 h. Then, cell viability was evaluated using the resazurin-based assay kit (TOX8), as described previously ([Grzesiak et al., 2011]; [Marycz et al., 2018]). The culture medium was replaced with medium containing 10% resazurin dye. The cells were incubated at 37°C in an atmosphere of 5% CO2 for 2 h. Absorbance levels were measured spectrophotometrically (Epoch) at a wavelengths of 600 nm for resazurin and 690 nm as a reference.

HepG2 cells = test: Resazurin-based viability assay; assay type: cell-based, human; settings: 24 h, 1, 50 and 200 μg/mL
Method: as §4, §5

C. albicans strains = test: Fungistatic activity assay, broth microdilution, values given over several strains; assay type: cell-based, Candida albicans; settings: Candida albicans; C. albicans 636/20, 595/20, 38 and ATTC90028; read-out: MIC50 (over all tested strains)
Method: as §2, §3

[3] = tested on: human hepatocellular carcinoma HepG2 cells; design: method as in Yoo et al., 2005; Song et al., 2014, 2020; settings: ref Yoo et al., 2005; Song et al., 2014, 2020; cited from earlier work
[4] = Free-radical scavenging assay (DPPH test); assay type: biochemical; settings: DPPH 190 μM in methanol, 1 h, 25°C, absorbance 517 nm
Method: The antiradical activity of all compounds was tested using the 2,2-diphenyl-1-picrylhydrazyl (DPPH) test according to a previously described method ([Herald et al., 2012]; [Dudek et al., 2022]). One litre of a fresh solution of 190 μM DPPH in pure methanol was prepared in a dark glass bottle. The solution was kept protected from light and used within a week. The tested compounds and ascorbic acid as a positive control were prepared at concentrations in the range of 5–100 μg/mL. Two hundred microlitres of the test compound dilutions was added to each well of a 96-well microtiter plate. Then, […] of a 190 μM solution of DPPH in methanol was added. DPPH was also added to the negative control, in which 200 μL of methanol was added instead of the test compounds. All samples were tested at least in triplicate. The microtiter plates were incubated in the Biosan PST-60 HL thermoshaker at 25°C under shaking at 1,000 rpm for 1 h. […] EC50 values were calculated using Quest Graph™ EC50 Calculator (AAT Bioquest, Inc.).

[5] = tested on: human osteosarcoma MG63 cell line; design: method as in Pandit et al., 2020; settings: ref Pandit et al., 2020; cited from earlier work
C. albicans 595/20 = test: Fungistatic activity assay, broth microdilution; assay type: cell-based; settings: Candida albicans; C. albicans 595/20, 24 h, 35°C, tested 10–250 μg/mL; read-out: MIC50
Method: as §2, §3

Row | SMILES | Fluorescence anisotropy of the DPH probe (RBCs membrane; 20 µM) | Fluorescence anisotropy of the DPH probe (RBCs membrane; 60 µM) | Fluorescence anisotropy of the DPH probe (RBCs membrane; 100 µM) | hemolysis at 1 h, 10 µM [1] | hemolysis at 1 h, 20 µM [1] | hemolysis at 1 h, 40 µM [1] | hemolysis at 1 h, 60 µM [1] | hemolysis at 1 h, 80 µM [1] | hemolysis at 1 h, 100 µM [1] | also measured
1 | CC(O)C(O)c1ccccc1 (stereo not drawn) [2b, 1-phenylpropane-1,2-diol] | 0.286 ± 0.015 | 0.277 ± 0.028 | 0.278 ± 0.011 | 1.04 ± 0.275% | 1.08 ± 0.107% | 1 ± 0.295% | 1.32 ± 0.255% | 1.79 ± 0.382% | 1.71 ± 0.054% | Change in DPH anisotropy / RBCs membrane fluidity (in words) (RBCs membrane; RBCs, 20, 60 and 100 μM): increase in anisotropy; Toxicity of substrate to the strain (in words) (Dietzia sp. DSM44016): toxic; Inhibitory effect of substrate on the strains (in words) [2]: inhibitory effect; MIC50 (C. albicans 636/20): 121 µg/mL (≈ 795 µM); MIC50 (C. albicans ATTC 90028): 125 µg/mL (≈ 821 µM); Effect on Caco-2 proliferation / viability (in words) (Caco-2 cells): strongest inhibition; Effect on HepG2 proliferation / viability (in words) (HepG2 cells): highest inhibitory effect
2 | C/C=C/c1ccc(OC)cc1 [3a, anethole] | 0.263 ± 0.005 | 0.261 ± 0.009 | 0.259 ± 0.008 | 1.36 ± 0.296% | 1.14 ± 0.159% | 2.23 ± 0.13% | 2.54 ± 0.267% | 2.2 ± 0.108% | 2.5 ± 0.39% | MIC50 (C. albicans strains): 62 to 100 µg/mL (≈ 418 to 675 µM); Effect on growth of HepG2 cells (in words) [3]: inhibited the growth; EC50 antiradical activity [4]: 19.13 µg/mL (≈ 129 µM); Proliferation and apoptosis in MG63 cell line (in words) [5]: caused abrogation in proliferation and induces apoptosis; MIC50 (C. albicans 595/20): 62 µg/mL (≈ 418 µM)
